Test results as given in ChEMBL document CHEMBL3098052, “Chemical synthesis and tyrosinase inhibitory activity of rhododendrol glycosides” (Bioorg Med Chem Lett, 2014).

The molecules below were run against T1, Tyrosinase (Agaricus bisporus) (UniProt O42713) (assay: Ratio of kojic acid IC50 to compound IC50 for mushroom tyrosinase).
T1 sequence (whole entry): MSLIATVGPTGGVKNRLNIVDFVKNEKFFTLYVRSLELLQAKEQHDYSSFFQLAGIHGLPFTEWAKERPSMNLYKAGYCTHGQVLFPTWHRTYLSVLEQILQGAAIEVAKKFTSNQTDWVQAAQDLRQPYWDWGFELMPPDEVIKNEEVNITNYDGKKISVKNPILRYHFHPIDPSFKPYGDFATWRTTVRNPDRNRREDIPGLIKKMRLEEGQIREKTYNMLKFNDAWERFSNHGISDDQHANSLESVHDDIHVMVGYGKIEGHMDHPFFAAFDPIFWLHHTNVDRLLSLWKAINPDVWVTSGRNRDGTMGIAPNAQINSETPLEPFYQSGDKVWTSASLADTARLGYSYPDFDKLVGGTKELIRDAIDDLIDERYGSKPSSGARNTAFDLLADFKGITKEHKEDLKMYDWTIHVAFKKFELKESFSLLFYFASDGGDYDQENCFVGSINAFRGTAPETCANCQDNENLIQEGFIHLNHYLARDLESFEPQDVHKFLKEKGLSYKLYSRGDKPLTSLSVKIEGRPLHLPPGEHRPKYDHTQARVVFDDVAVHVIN
`C[C@H](CCc1ccc(O)cc1O)O[C@@H]1O[C@H](CO)[C@@H](O[C@@H]2O[C@H](CO)[C@@H](O)[C@H](O)[C@H]2O)[C@H](O)[C@H]1O` showed a Ratio IC50 of 6.

Each molecule was assayed against T2, Tyrosinase (Agaricus bisporus, UniProt O42713) (assay: Inhibition of mushroom tyrosinase using L-DOPA as substrate assessed as dopachrome formation after 5 mins by spectrophotometry).
T2 sequence (O42713 whole entry): T1 sequence (whole entry)
`C[C@@H](CCc1ccc(O)cc1O)O[C@@H]1OC[C@@H](O)[C@H](O)[C@H]1O` gave an IC50 of 4560 nM. Work on `C[C@H](CCc1ccc(O)cc1O)O[C@@H]1O[C@H](CO)[C@@H](O)[C@H](O)[C@H]1O` yielded an IC50 of 2300 nM. Molecule `C[C@H](CCc1ccc(O)cc1O)O[C@@H]1OC[C@@H](O)[C@H](O)[C@H]1O` has an IC50 of 1720 nM. With `C[C@@H](CCc1ccc(O)cc1O)O[C@@H]1O[C@H](CO)[C@@H](O[C@@H]2O[C@H](CO)[C@@H](O)[C@H](O)[C@H]2O)[C@H](O)[C@H]1O` the IC50 was 3830 nM. `C[C@@H](CCc1ccc(O)cc1O)O[C@@H]1O[C@H](CO)[C@@H](O)[C@H](O)[C@H]1O` showed an IC50 of 4720 nM. `C[C@H](CCc1ccc(O)cc1O)O[C@@H]1O[C@H](CO)[C@@H](O[C@@H]2O[C@H](CO)[C@@H](O)[C@H](O)[C@H]2O)[C@H](O)[C@H]1O` was tested, and the IC50 was 1510 nM. `CCCCCCc1ccc(O)cc1O` [HEXYLRESORCINOL] showed an IC50 of 560 nM.
